This note sets out measurements from BindingDB's records for patent US11739090 (Jumbo Drug Bank, 2023).

The structures appear in SMILES notation.

In test [1] the target is Tyrosine-protein kinase BTK (Homo sapiens, UniProt Q06187). Description: BTK Kinase Assay. Here is the method:
(§1) 1. Reaction conditions: buffer conditions: 20 mM HEPES (pH 7.5), 10 mM MgCl2, 1 mM EGTA, 0.02% Brij35, 0.02 mg/mL BSA, 0.1 mm Na3VO4, 2 mm DTT, 1% DMSO.2. Reaction procedure:2.1. Preparing an indicator substrate in a freshly prepared reaction buffer 2.2. Delivering the desired cofactor to the above substrate solution 2.3. Delivering the indicated kinase to the substrate solution and gently mixing same 2.4. Delivering the compounds in DMSO to the kinase reaction mixture using acoustic technology (Echo550) 2.5. Initiating the reaction (final concentration of ATP: 5 μM) by delivering 33P-ATP (final specific activity: 0.01 μci/μL) to the reaction mixture 2.6. Incubating the kinase reaction at room temperature for 120 minutes 2.7. Recording the reaction on P81 ion exchange paper (Whatman #3698-915) 2.8. Washing the filter widely with 0.75% phosphoric acid 2.9. Measuring the radioactive phosphorylated substrate remaining on the filter paper. 3.Data analysis: the kinase activity data is expressed as the percentage of the remaining kinase activity in a test sample compared to a reaction with a carrier (dimethyl sulfoxide), and IC50 values and curve fitting are obtained using Prism4 software (GraphPad).

The target of test [2] is Epidermal growth factor receptor (Homo sapiens, UniProt P00533). Briefly: EGFR, ITK and TEC Kinase Assay. On the procedure: as §1, with “DMSO. 2.” for “DMSO.2.”, “ATP: 2 μM,” for “ATP:”, “μM and 5 μM respectively)” for “μM)”, “3. Data” for “3.Data”
For test [3], the target named is T1, Tyrosine-protein kinase ITK/TSK (Homo sapiens, UniProt Q08881).
T1 sequence (Q08881 whole entry): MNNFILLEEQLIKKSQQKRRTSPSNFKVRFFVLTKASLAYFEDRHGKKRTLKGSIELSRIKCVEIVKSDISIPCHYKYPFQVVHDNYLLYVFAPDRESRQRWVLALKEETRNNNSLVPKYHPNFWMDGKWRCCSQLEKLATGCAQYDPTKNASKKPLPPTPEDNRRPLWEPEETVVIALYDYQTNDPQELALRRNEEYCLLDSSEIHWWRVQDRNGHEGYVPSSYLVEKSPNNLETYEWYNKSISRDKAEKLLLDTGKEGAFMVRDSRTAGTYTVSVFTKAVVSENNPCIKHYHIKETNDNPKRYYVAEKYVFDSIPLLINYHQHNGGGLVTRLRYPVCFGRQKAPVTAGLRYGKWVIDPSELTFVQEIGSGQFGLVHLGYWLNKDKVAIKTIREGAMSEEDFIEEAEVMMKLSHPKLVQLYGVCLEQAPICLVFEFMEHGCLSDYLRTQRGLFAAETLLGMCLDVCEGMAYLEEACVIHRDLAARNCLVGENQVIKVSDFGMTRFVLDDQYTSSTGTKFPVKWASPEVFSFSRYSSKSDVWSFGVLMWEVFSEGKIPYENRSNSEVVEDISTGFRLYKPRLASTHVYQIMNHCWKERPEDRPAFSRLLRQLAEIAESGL

Test [4] concerns the target T2, Tyrosine-protein kinase Tec (Homo sapiens, UniProt P42680).
T2 sequence (P42680 whole entry): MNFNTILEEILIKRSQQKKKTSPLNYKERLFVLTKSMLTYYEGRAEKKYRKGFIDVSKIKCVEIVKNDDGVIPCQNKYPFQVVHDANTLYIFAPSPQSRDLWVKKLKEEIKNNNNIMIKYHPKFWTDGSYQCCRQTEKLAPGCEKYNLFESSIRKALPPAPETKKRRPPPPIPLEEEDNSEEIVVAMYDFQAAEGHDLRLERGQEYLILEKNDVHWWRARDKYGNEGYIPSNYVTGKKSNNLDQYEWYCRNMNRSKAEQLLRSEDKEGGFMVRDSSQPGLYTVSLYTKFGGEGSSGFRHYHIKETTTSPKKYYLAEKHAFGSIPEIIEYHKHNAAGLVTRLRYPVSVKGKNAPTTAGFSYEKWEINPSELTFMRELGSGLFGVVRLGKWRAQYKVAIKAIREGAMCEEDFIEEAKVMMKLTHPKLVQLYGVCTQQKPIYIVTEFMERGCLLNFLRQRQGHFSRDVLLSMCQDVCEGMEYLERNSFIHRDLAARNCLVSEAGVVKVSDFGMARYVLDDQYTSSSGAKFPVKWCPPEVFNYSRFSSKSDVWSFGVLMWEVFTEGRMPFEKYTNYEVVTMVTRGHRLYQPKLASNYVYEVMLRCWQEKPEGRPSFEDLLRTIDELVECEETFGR

Sequence of Epidermal growth factor receptor (P00533 whole entry): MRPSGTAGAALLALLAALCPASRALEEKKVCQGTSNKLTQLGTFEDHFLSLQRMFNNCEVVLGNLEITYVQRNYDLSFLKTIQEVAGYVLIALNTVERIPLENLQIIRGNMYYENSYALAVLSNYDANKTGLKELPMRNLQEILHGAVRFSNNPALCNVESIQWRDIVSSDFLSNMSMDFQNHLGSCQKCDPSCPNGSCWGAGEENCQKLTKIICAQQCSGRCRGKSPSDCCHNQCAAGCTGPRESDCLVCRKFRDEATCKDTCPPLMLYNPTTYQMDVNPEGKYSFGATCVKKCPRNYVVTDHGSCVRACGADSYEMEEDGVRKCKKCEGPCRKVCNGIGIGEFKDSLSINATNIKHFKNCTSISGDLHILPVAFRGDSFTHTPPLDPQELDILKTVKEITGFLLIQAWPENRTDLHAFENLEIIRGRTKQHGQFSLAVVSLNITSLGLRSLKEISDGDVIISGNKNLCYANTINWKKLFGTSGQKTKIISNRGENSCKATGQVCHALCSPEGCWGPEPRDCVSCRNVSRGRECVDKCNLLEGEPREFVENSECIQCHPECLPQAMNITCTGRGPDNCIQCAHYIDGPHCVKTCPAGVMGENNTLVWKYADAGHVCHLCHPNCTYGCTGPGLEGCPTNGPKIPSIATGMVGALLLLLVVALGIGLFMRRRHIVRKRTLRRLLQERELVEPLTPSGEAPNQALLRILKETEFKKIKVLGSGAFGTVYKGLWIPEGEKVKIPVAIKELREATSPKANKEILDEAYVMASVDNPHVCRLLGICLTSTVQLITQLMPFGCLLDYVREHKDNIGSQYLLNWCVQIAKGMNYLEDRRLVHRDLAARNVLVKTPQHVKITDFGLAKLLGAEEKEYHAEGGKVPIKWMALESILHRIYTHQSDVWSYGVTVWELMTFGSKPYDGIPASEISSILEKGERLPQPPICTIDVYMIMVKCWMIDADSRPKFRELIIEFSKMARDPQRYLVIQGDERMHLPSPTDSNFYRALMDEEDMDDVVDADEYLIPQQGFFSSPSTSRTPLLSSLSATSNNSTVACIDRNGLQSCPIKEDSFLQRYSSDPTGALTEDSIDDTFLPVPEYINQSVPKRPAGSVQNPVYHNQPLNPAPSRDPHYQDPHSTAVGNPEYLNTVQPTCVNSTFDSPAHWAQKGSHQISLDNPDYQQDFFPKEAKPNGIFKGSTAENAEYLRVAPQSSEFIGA
Sequence of Tyrosine-protein kinase BTK (Q06187 whole entry): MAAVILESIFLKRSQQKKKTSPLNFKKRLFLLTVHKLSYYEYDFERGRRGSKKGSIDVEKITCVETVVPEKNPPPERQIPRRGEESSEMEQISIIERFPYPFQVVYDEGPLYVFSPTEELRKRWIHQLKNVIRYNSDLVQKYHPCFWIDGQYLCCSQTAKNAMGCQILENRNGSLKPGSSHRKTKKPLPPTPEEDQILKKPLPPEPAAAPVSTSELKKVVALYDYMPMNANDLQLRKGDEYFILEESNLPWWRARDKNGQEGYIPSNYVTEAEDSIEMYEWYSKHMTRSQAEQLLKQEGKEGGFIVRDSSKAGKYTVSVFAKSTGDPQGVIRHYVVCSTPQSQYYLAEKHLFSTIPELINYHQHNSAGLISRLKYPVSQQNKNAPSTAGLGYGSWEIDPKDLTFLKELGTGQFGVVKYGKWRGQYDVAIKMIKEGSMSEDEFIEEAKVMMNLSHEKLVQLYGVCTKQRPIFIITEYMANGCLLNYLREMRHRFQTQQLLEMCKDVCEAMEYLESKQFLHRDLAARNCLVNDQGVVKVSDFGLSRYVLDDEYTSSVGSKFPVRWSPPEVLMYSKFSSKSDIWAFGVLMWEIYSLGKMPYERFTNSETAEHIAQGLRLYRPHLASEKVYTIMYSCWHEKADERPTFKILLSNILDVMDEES

In the case of `C=CC(=O)N1CCC[C@H](c2nn(-c3ccc(Oc4ccccc4)cc3)c3c(N)nccc23)C1` [US11739090, Compound 7B], the 50% inhibitory concentration (IC50) in test [1] was found to be 0.93 nM; in test [2], 33.3 nM; in test [3], 1450 nM; in test [4], 3.74 nM.
For `C=CC(=O)N1CCC[C@@H](c2nn(-c3ccc(Oc4ccccc4)cc3)c3c(N)nccc23)C1` [US11739090, Compound 7A], the half-inhibitory concentration (IC50) in test [1] is 0.73 nM; in test [2] it was 14.5 nM; in test [3] it was 42.2 nM; in test [4], 3.39 nM.

One may read the IC50 as the concentration needed to halve the response being measured. Lower therefore signals greater potency.
